This assay has as its target T1, HepII (Heptosyltransferase II) (Escherichia coli, UniProt P37692).
T1 sequence (P37692 1-348): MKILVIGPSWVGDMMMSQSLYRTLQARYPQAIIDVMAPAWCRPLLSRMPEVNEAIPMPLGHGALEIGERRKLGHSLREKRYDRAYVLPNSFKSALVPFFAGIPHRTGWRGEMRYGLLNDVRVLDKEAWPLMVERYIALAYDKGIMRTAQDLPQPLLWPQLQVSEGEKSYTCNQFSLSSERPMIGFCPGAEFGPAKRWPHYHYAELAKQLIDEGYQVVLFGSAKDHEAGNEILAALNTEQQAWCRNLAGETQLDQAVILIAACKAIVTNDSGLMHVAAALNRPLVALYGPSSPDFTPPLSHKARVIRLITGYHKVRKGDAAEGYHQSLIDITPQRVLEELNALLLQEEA
The assay is described as follows: tryptophan fluorescence quenching. The class given is binding.

For orientation: Kd means the free concentration of one partner at which half of the binding sites on the other are occupied at equilibrium, for simple one-to-one binding. High values mean lower affinity, low ones higher affinity.

`Nc1ncnc2c1ncn2[C@@H]1O[C@H](COP(=O)(O)OP(=O)(O)O[C@@H]2O[C@H]([C@@H](O)CO)[C@@H](O)[C@H](O)[C@@H]2O)[C@@H](O)[C@H]1O` [ADP-Hep] gave a dissociation constant Kd of 660 ± 460 nM.
